Results on nine compounds are retold here after ChEMBL document CHEMBL5724558, “Image-based profiling of drug vulnerabilities in CRC organoids” (2024).

Assay type in all cases: functional, Homo sapiens
Common to all, as to design: dose or concentration left out as unconfirmed

Assay [1] relates to Colon cancer organoid. Briefly: Image-based profiling of donated chemical probes and chemogenomic kinase set in O06 CRC organoid. Image analysis is performed on the sum area metric, and the data were normalized to the DMSO control. After imaging the organoid viability is measured using the OneGloEX Luciferase Assay System. The normalized viability data and sum area are reported.

For assay [2], the system named is Colon cancer organoid. Briefly: Image-based profiling of donated chemical probes and chemogenomic kinase set in O09 CRC organoid. Image analysis is performed on the sum area metric, and the data were normalized to the DMSO control. After imaging the organoid viability is measured using the OneGloEX Luciferase Assay System. The normalized viability data and sum area are reported.

Assay [3] deals with Colon cancer organoid. The assay can be described thus: Image-based profiling of donated chemical probes and chemogenomic kinase set in O21 CRC organoid. Image analysis is performed on the sum area metric, and the data were normalized to the DMSO control. After imaging the organoid viability is measured using the OneGloEX Luciferase Assay System. The normalized viability data and sum area are reported.

Where “and” joins values, the source holds several entries; their conditions need not be identical. Identical values can stand only once.

On to `c1ccc(C2CCN(c3cnc4c(N5CCOCC5)nccn34)CC2)cc1`, for which the “Cell Viability” value in the assay with Colon cancer organoid [1] (Replication number 1) was 145.966% and 120.992%; in the assay on Colon cancer organoid [1] (Replication number 2), 117.4% and 104.103%; in the assay with Colon cancer organoid [2] (Replication number 1), 180.042% and 107.897%; with Colon cancer organoid [2] (Replication number 2), 162.986% and 102.452%; in the assay on Colon cancer organoid [3] (Replication number 1), 115.301% and 98.0422%; with Colon cancer organoid [3] (Replication number 2), 102.772% and 73.1066%.
Take `CN(C)C(=O)/C(C#N)=C/c1ccc(-c2nc3cnc4[nH]ccc4c3n2C2CCCCC2)o1`: the “Cell Viability” value with Colon cancer organoid [1] (Replication number 1) was 174.281% and 154.216%; in the assay on Colon cancer organoid [1] (Replication number 2) it was 123.709% and 122.376%; in the assay on Colon cancer organoid [2] (Replication number 1) it was 104.012% and 103.69%; in the assay with Colon cancer organoid [2] (Replication number 2), 101.367% and 106.659%; in the assay on Colon cancer organoid [3] (Replication number 1), 101.13% and 96.3421%; in the assay on Colon cancer organoid [3] (Replication number 2) it was 107.991% and 97.4755%.
For the compound `COc1cc(Nc2nccc(-c3cnn4nc(OC)ccc34)n2)cc(C(F)(F)F)c1`, the “Cell Viability” value was 24.0396% and 55.0969% with Colon cancer organoid [1] (Replication number 1); 25.0029% and 51.7745% in the assay with Colon cancer organoid [1] (Replication number 2); 18.7716% and 22.0247% in the assay on Colon cancer organoid [2] (Replication number 1); 18.9351% and 21.2081% in the assay with Colon cancer organoid [2] (Replication number 2); 43.8285% and 81.0407% in the assay with Colon cancer organoid [3] (Replication number 1); 69.763% and 98.0422% in the assay with Colon cancer organoid [3] (Replication number 2).
Take `COCCN1CCC(c2cc(CN(C)C(=O)c3cccc(Oc4ccccc4)c3)ccn2)CC1`: the “Cell Viability” value is 195.683% and 128.295% in the assay on Colon cancer organoid [1] (Replication number 1); 160.805% and 131.439% in the assay on Colon cancer organoid [1] (Replication number 2); 147.027% and 86.0124% in the assay on Colon cancer organoid [2] (Replication number 1); 179.06% and 107.19% in the assay on Colon cancer organoid [2] (Replication number 2); 116.465% and 111.692% with Colon cancer organoid [3] (Replication number 1); 91.1118% and 90.2148% in the assay on Colon cancer organoid [3] (Replication number 2).
With `Cl.Cl.c1ccc([C@@H]2C[C@H]2NC2CCNCC2)cc1`, the “Cell Viability” value was 175.971% and 140.859% in the assay on Colon cancer organoid [1] (Replication number 1); 170.528% and 119.251% with Colon cancer organoid [1] (Replication number 2); 165.336% and 102.473% in the assay with Colon cancer organoid [2] (Replication number 1); 183.388% and 100.348% in the assay with Colon cancer organoid [2] (Replication number 2); 139.321% and 134.03% in the assay with Colon cancer organoid [3] (Replication number 1); 128.492% and 116.527% with Colon cancer organoid [3] (Replication number 2).
For `Cc1cc(F)c(C(=O)Nc2cccc(-c3nncn3C(C)C)n2)cc1-n1cnc(C2CC2)c1` [SELONSERTIB], the “Cell Viability” value is 102.175% and 96.1469% with Colon cancer organoid [1] (Replication number 1); 88.4921% and 93.9846% in the assay on Colon cancer organoid [1] (Replication number 2); 115.111% and 84.0268% in the assay on Colon cancer organoid [2] (Replication number 1); 104.846% and 82.0651% with Colon cancer organoid [2] (Replication number 2); 96.1672% and 86.9686% with Colon cancer organoid [3] (Replication number 1); 76.8515% and 83.4833% in the assay with Colon cancer organoid [3] (Replication number 2).
On to `O=C(c1ccc(C(=O)N2CCC(N3CCCC3)CC2)c(Nc2ccccc2)c1)N1CCC(N2CCCC2)CC1`, for which the “Cell Viability” value in the assay on Colon cancer organoid [1] (Replication number 1) was 185.477% and 131.195%; in the assay with Colon cancer organoid [1] (Replication number 2) it was 168.44% and 129.527%; in the assay on Colon cancer organoid [2] (Replication number 1), 81.7706% and 92.0402%; in the assay with Colon cancer organoid [2] (Replication number 2), 143.807% and 112.037%; with Colon cancer organoid [3] (Replication number 1), 116.035% and 118.746%; in the assay with Colon cancer organoid [3] (Replication number 2), 94.3605% and 99.3437%.
Regarding `Cc1ccc2nc(CNCCCOc3ccccc3)cc(O)c2c1` [UCSF924], the “Cell Viability” value in the assay with Colon cancer organoid [1] (Replication number 1) is 116.607% and 123.644%; with Colon cancer organoid [1] (Replication number 2) it was 89.7333% and 84.3345%; with Colon cancer organoid [2] (Replication number 1), 89.1468% and 105.602%; in the assay on Colon cancer organoid [2] (Replication number 2), 80.3683% and 95.5591%; in the assay with Colon cancer organoid [3] (Replication number 1), 109.248% and 108.585%; with Colon cancer organoid [3] (Replication number 2) it was 100.134% and 96.363%.
`Cc1nnc2c3ccccc3c(N[C@@H](C)[C@H](c3ccccc3)N(C)C)nn12`: the “Cell Viability” value in the assay on Colon cancer organoid [1] (Replication number 1) was 129.952% and 136.027%; with Colon cancer organoid [1] (Replication number 2), 163.32% and 118.295%; in the assay with Colon cancer organoid [2] (Replication number 1), 148.648% and 110.587%; with Colon cancer organoid [2] (Replication number 2) it was 133.595% and 98.3529%; in the assay on Colon cancer organoid [3] (Replication number 1) it was 132.945% and 134.618%; with Colon cancer organoid [3] (Replication number 2) it was 79.559% and 84.8449%.
